Test results: US20060140970A1, “Proteic binding partners of TCTP and methods of modulating tumor reversion or cell apoptosis” (priority 2003, published 2006)

What was measured:
293T HEK cells = test: Polymerized tubulin fraction in cells, western blot anti-α-tubulin; type: cell-based
Description: […] The treated cells were rinsed twice in PBS, lyzed on plates with 250 μl of a microtubule-stabilizing buffer (20 mM Tris-HCl, pH 6.8, 140 mM NaCl, 0.5 % Nonidet P-40, 1 mM MgCl2, 2 mM EGTA, 4 μg/ml Taxol, protease inhibitors cocktail), scraped and transferred into a 1.5 ml microcentrifuge tube. Each plate was rinsed with a second 250 μl of lysis buffer, and the cell lysates were pooled. The lysis occurred for 20 minutes at room temperature. The microcentrifuge tubes containing 500 μl of lyzed cells contents were briefly mixed and then centrifuged at 14,000 rpm for 10 minutes at 4° C. Supernatants containing soluble tubulin were carefully separated from pellets containing polymerized tubulin and placed in a separate tube. The pellets were quickly rinsed with additional 20 μl of lysis buffer and resuspended in 125 μl of water. […] The concentration of proteins in the supernatants was measured by spectrophotometry at 595 nm (Bradford method). Using these soluble tubulin concentration values, 60 μg of the polymerized tubulin fractions were run on a 10% acrylamide gel (SDS-PAGE system) and transferred on a nitrocellulose membrane (Biorad) that was incubated with an anti-a-tubulin (Sigma) diluted 1/2000. Since TCTP overexpression lead to a decrease of OP18 phosphorylation, and consequently, contribute to the maintenance of OP18 in its active state, it was hypothesized that TCTP overexpression would induce the microtubule depolymerization. To confirm this hypothesis, an assay that enables the isolation and monitoring of the tubulin in a microtubule polymerized state only, but not in a free soluble state, was performed. Briefly, after lysis of cells in a hypotonic buffer containing low dose of Taxol (a microtubule stabilizing agent) and a centrifugation, the polymerized fraction of tubulin was preserved and purified. Then, the amount of polymerized tubulin in cells was monitored by western blot using an anti-α-tubulin antibody.

[1] = system: OP18 phosphorylation in 293 HEK cells; test: OP18 phosphorylation state, native PAGE and immunoblot; type: cell-based; conditions: nocodazole 250 ng/ml, control cells
Description: Transfection, preparation of native OP18 enriched extracts, and analysis of OP18 phosphorylation levels. 293 T cells were transfected by the standard calcium phosphate method, with the following constructs: pEYFP (Clontech, BD) (negative control), pEYFP-TCTP wide type (WT) or the mutant pEYFP-TCTP S46A/S64A. Twenty four hours after the transfection, the cells were treated with nocodazole (250 ng/ml) for 0 hour, 1 hour, 2 hours, 4 hours and 8 hours, and rinsed twice in PBS. The pellets were lyzed with 3-5 volumes of lysis buffer (50 mM Tris-HCl, pH 7.5, 250 mM NaCl, 10 mM EDTA, 1% Nonidet P-40, protease inhibitors cocktail and phosphatases inhibitors (10 mM sodium orthovanadate, 10 mM natrium fluoride (NAF)) on ice for 20 minutes, and centrifuged for 10 minutes at 14,000 rpm at 4° C. The supernatants were carefully removed and stored on ice while measuring their concentration of proteins by spectrophotometry at 595 nm (Bradford method). To enrich the concentration of OP18 in the extracts, 1.2 mg of each total extract was boiled at 75° C. for 7 minutes, put on ice for 1 minute, and centrifuged for 10 minutes at 14,000 rpm at 4° C. Then, the supernatants were precipitated in 5-6 volumes of 1% sucrose in methanol O/N at −20° C. […]

[2] = molecular target: T1, eEF1A (eEF1Bαγ-mediated GDP exchange) (Oryctolagus cuniculus, UniProt P68105); test: eEF1Bαγ-mediated GDP exchange on eEF1A; type: biochemical, rabbit; conditions: without TCTP; first-order kinetics
T1 construct: Rabbit liver eEF1A was purified as described in Shalak et al; from tissue; host or cells: rabbit liver (eEF1A only)
T1 sequence (P68105 2-462 limits assumed): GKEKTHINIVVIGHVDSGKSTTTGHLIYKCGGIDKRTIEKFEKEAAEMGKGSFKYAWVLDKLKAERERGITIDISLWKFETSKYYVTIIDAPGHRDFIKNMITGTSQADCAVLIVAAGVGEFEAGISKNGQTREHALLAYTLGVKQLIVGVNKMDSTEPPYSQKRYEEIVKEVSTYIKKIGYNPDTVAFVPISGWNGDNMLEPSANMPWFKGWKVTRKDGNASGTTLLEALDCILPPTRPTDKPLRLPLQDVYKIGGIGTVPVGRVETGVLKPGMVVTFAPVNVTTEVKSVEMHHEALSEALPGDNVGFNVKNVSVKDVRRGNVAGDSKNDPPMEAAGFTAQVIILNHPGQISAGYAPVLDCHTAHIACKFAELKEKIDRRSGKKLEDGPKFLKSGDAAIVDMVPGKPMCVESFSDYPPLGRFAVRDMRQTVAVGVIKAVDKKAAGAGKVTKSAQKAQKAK
Description: Guanine nucleotide exchange assay. Rabbit liver eEF1A was purified as described in Shalak et al., Ukr Biokhim Zh, 69: 104-9 (1997), incorporated herein by reference. The guanine nucleotide exchange on eEF1A was monitored as described in Negrutskii et al., J Biol Chem, 274: 4545-50 (1999) and Bec et al., J Biol Chem, 269: 2086-92 (1994), both of which are incorporated herein by reference. The eEF1A-[^3H]GDP complex was prepared following incubation of 4 μM eEF1A with 4 μM [^3H]GDP (Amersham Biosciences; 1500 Ci/mol) in 80 μl of 45 mM Tris-HCl (pH 7.5) containing 0.5 mM DTT, 10 mM magnesium acetate, 100 mM NH4Cl, 1 mg/ml bovine serum albumin and 25% glycerol for 5 minutes at 37° C. The reaction mixture was placed on ice and diluted by addition of 640 μl of ice-cold exchange buffer [20 mM Tris-HCl (pH 7.5), 10 mM magnesium acetate, 50 mM NH4Cl, 10% glycerol]. The exchange reaction was conducted at 0° C. after addition of 160 μl of exchange buffer containing nucleotide and specified exchange factors. Aliquots of 100 μl were taken at times indicated and immediately filtered through nitrocellulose filters (Millipore; pore size 0.45 μm). Filters were washed 3 times with 1 ml of ice-cold washing buffer [20 mM Tris-HCl (pH 7.5), 10 mM magnesium acetate, 100 mM NH4Cl, 0.1 mg/ml bovine serum albumin], dried and counted in a liquid scintillator. […]

Row | Compound | amount of polymerized tubulin (293T HEK cells; 16 hours of treatment, compared to untreated cells) | tubulin polymerization during nocodazole treatment (293T HEK cells; nocodazole 250 ng/ml, increasing time, transfected 293T HEK cells) | time from which OP18 with three (3-P) and four (4-P) phosphorylated sites is detectable [1] | initial rate of GDP exchange [2]
1 | COC(=O)Nc1nc2ccc(C(=O)c3cccs3)cc2[nH]1 [nocodazole] | no polymerized tubulin was present | decreased proportionally to the time length of treatment | ≥ 2 h | –
2 | eEF1Bαγ: complex of guanine nucleotide exchange factor eEF1Bα with eEF1Bγ | – | – | – | 0.84 min^−1 per pmol of eEF1Bα≢5
